pIC50: −log10 of the molar value.
assay: Cell-Based Assay of NHE-3 Activity: Rat NHE-3-mediated Na+-dependent H+ antiport was measured using a modification of the pH sensitive dye method originally reported by Tsien (Proc. Natl. Acad. Sci. USA. (1984) 81(23): 7436-7440). Opossum kidney (OK) cells were obtained from the ATCC and propagated per their instructions. The rat NHE-3 gene was introduced into OK cells via electroporation, seeded into 96 well plates and grown overnight. Medium was aspirated from the wells, cells were washed twice with NaCl-HEPES buffer (100 mM NaCl, 50 mM HEPES, 10 mM glucose, 5 mM KCl, 2 mM CaCl2, 1 mM MgCl2, pH 7.4), then incubated for 30 min at room temperature with NH4Cl-HEPES buffer (20 mM NH4Cl, 80 mM NaCl, 50 mM HEPES, 5 mM KCl, 2 mM CaCl2, 1 mM MgCl2, pH 7.4) containing 5 uM BCECF-AM (Invitrogen). Cells were washed twice with Ammonium free, Na+-free HEPES (100 mM choline, 50 mM HEPES, 10 mM glucose, 5 mM KCl, 2 mM CaCl2, 1 mM MgCl2, pH 7.4) and incubated in the same buffer for 10 minutes at room temperature to lower intracellular pH. […] Initial rates were plotted as the average 3-6 replicates, and pIC50 values were estimated using GraphPad Prism.

SMILES | IC50 | pIC50
CN1Cc2c(Cl)cc(Cl)cc2C(c2cccc(S(=O)(=O)NCCOCCOCCOCCNC(=O)CCCCCCC(=O)NCCOCCOCCOCCNS(=O)(=O)c3cccc(C4CN(C)Cc5c(Cl)cc(Cl)cc54)c3)c2)C1 (stereo not given) | in the range around 316 nM | 
CN1Cc2c(Cl)cc(Cl)cc2C(c2cccc(S(=O)(=O)NCCOCCOCCNC(=O)NCCCCNC(=O)NCCOCCOCCNS(=O)(=O)c3cccc(C4CN(C)Cc5c(Cl)cc(Cl)cc54)c3)c2)C1 (stereo not given) |  | > 7.00
CN1Cc2c(Cl)cc(Cl)cc2C(c2cccc(S(=O)(=O)NCCOCCOCCOCCNC(=O)c3ccccc3C(=O)NCCOCCOCCOCCNS(=O)(=O)c3cccc(C4CN(C)Cc5c(Cl)cc(Cl)cc54)c3)c2)C1 (stereo not given) |  | > 7.00
CN1Cc2c(Cl)cc(Cl)cc2C(c2ccc(S(=O)(=O)NCCOCCOCCNC(=O)[C@H](O)[C@@H](O)C(=O)NCCOCCOCCNS(=O)(=O)c3ccc(C4CN(C)Cc5c(Cl)cc(Cl)cc54)cc3)cc2)C1 (stereo not given in full) | in the range around 316 nM | 
CN1Cc2c(Cl)cc(Cl)cc2C(c2cccc(S(=O)(=O)NCCOCCOCCNC(=O)c3ccc(C(=O)NCCOCCOCCNS(=O)(=O)c4cccc(C5CN(C)Cc6c(Cl)cc(Cl)cc65)c4)cc3)c2)C1 (stereo not given) | in the range around 3160 nM | 
CN1Cc2c(Cl)cc(Cl)cc2C(c2cccc(S(=O)(=O)NCCOCCOCCOCCNC(=O)NCCOCCOCCOCCNS(=O)(=O)c3cccc(C4CN(C)Cc5c(Cl)cc(Cl)cc54)c3)c2)C1 (stereo not given) | in the range around 316 nM | 
CN1Cc2c(Cl)cc(Cl)cc2C(c2cccc(S(=O)(=O)NCCOCCOCCNC(=O)Nc3ccc(NC(=O)NCCOCCOCCNS(=O)(=O)c4cccc(C5CN(C)Cc6c(Cl)cc(Cl)cc65)c4)cc3)c2)C1 (stereo not given) |  | > 7.00
CN1Cc2c(Cl)cc(Cl)cc2C(c2cccc(S(=O)(=O)NCCOCCOCCNC(=O)COCC(=O)NCCOCCOCCNS(=O)(=O)c3cccc(C4CN(C)Cc5c(Cl)cc(Cl)cc54)c3)c2)C1 (stereo not given) |  | > 7.00
CN1Cc2c(Cl)cc(Cl)cc2C(c2ccc(S(=O)(=O)NCCOCCOCCOCCNC(=O)c3ccc(C(=O)NCCOCCOCCOCCNS(=O)(=O)c4ccc(C5CN(C)Cc6c(Cl)cc(Cl)cc65)cc4)cc3)cc2)C1 (stereo not given) |  | > 5.00
CN1Cc2c(Cl)cc(Cl)cc2C(c2cccc(S(=O)(=O)NCCOCCOCCNC(=O)C(C)(C)C(=O)NCCOCCOCCNS(=O)(=O)c3cccc(C4CN(C)Cc5c(Cl)cc(Cl)cc54)c3)c2)C1 (stereo not given) | in the range around 3160 nM | 
NC(N)=NCCCN1CCN(c2cccc(-c3nc(N=C(N)N)nc4ccc(Cl)cc34)c2)CC1 | in the range around 316 nM | 
CN1Cc2c(Cl)cc(Cl)cc2C(c2cccc(S(=O)(=O)NCCOCCOCCNC(=O)NCCOCCOCCNS(=O)(=O)c3cccc(C4CN(C)Cc5c(Cl)cc(Cl)cc54)c3)c2)C1 (stereo not given) |  | > 5.00
CN1Cc2c(Cl)cc(Cl)cc2C(c2cccc(S(=O)(=O)NCCOCCOCCOCCOCCOCCOCCOCCOCCOCCOCCNC(=O)CCOCCOCCOCCOCCOCCOCCOCCOCCOCCC(=O)NCCOCCOCCOCCOCCOCCOCCOCCOCCOCCOCCNS(=O)(=O)c3cccc(C4CN(C)Cc5c(Cl)cc(Cl)cc54)c3)c2)C1 (stereo not given) | in the range around 316 nM | 
CN1Cc2c(Cl)cc(Cl)cc2C(c2cccc(S(=O)(=O)NCCOCCOCCOCCNC(=O)c3cc(C(=O)NCCOCCOCCOCCNS(=O)(=O)c4cccc(C5CN(C)Cc6c(Cl)cc(Cl)cc65)c4)cc(C(=O)NCCOCCOCCOCCNS(=O)(=O)c4cccc(C5CN(C)Cc6c(Cl)cc(Cl)cc65)c4)c3)c2)C1 (stereo not given) |  | > 7.00
C/C(=C\c1cc(F)c(Oc2ccc(S(=O)(=O)NCCCP(=O)(O)O)cc2)c(F)c1)C(=O)N=C(N)N | in the range around 3160 nM | 
NC(N)=Nc1nc(-c2cccc(N3CCN(CCO)CC3)c2)c2cc(Cl)ccc2n1 | in the range around 316 nM | 
CN1Cc2c(Cl)cc(Cl)cc2C(c2cccc(S(=O)(=O)NCCOCCOCCNC(=O)CCC(=O)NCCOCCOCCNS(=O)(=O)c3cccc(C4CN(C)Cc5c(Cl)cc(Cl)cc54)c3)c2)C1 (stereo not given) |  | > 7.00
C/C(=C\c1cc(F)c(Oc2ccc(S(=O)(=O)NCCOCCOCCOCCN)cc2)c(F)c1)C(=O)N=C(N)N | in the range around 316 nM | 
N=C(N)N1CCN(c2ccc(-c3nc(N=C(N)N)nc4ccc(Cl)cc34)cc2)CC1 | in the range around 316 nM | 
CN1Cc2c(Cl)cc(Cl)cc2C(c2ccc(S(=O)(=O)NCCOCCOCCNC(=O)C(O)C(O)C(=O)NCCOCCOCCNS(=O)(=O)c3ccc(C4CN(C)Cc5c(Cl)cc(Cl)cc54)cc3)cc2)C1 (stereo not given) |  | > 7.00
CN1Cc2c(Cl)cc(Cl)cc2C(c2cccc(S(=O)(=O)NCCOCCOCCOCCNC(=O)c3cccc(C(=O)NCCOCCOCCOCCNS(=O)(=O)c4cccc(C5CN(C)Cc6c(Cl)cc(Cl)cc65)c4)c3)c2)C1 (stereo not given) | in the range around 316 nM | 
C/C(=C\c1cc(F)c(Oc2ccc(S(=O)(=O)NCCOCCOCCOCCNC(=O)CCCCCCC(=O)NCCOCCOCCOCCNS(=O)(=O)c3ccc(Oc4c(F)cc(/C=C(\C)C(=O)N=C(N)N)cc4F)cc3)cc2)c(F)c1)C(=O)N=C(N)N |  | > 7.00
CN1Cc2c(Cl)cc(Cl)cc2C(c2cccc(S(=O)(=O)NCCOCCOCCOCCNC(=O)[C@@H](O)[C@@H](O)C(=O)NCCOCCOCCOCCNS(=O)(=O)c3cccc(C4CN(C)Cc5c(Cl)cc(Cl)cc54)c3)c2)C1 (stereo not given in full) |  | > 7.00

SMILES | IC50 | pIC50
CN1Cc2c(Cl)cc(Cl)cc2C(c2ccc(S(=O)(=O)NCCOCCOCCOCCNC(=O)C(O)C(O)C(=O)NCCOCCOCCOCCNS(=O)(=O)c3ccc(C4CN(C)Cc5c(Cl)cc(Cl)cc54)cc3)cc2)C1 (stereo not given) |  | > 7.00
CN1Cc2c(Cl)cc(Cl)cc2C(c2ccc(S(=O)(=O)NCCOCCOCCNC(=O)c3ccc(C(=O)NCCOCCOCCNS(=O)(=O)c4ccc(C5CN(C)Cc6c(Cl)cc(Cl)cc65)cc4)cc3)cc2)C1 (stereo not given) |  | > 5.00
CN1Cc2c(Cl)cc(Cl)cc2C(c2ccc(S(=O)(=O)NCCOCCOCCNC(=O)NCCOCCOCCNS(=O)(=O)c3ccc(C4CN(C)Cc5c(Cl)cc(Cl)cc54)cc3)cc2)C1 (stereo not given) |  | > 5.00
NC(N)=Nc1nc(-c2ccc(N3CCN(CCO)CC3)cc2)c2cc(Cl)ccc2n1 | in the range around 316 nM | 
C/C(=C\c1cc(F)c(Oc2ccc(S(=O)(=O)NCCOCCOCCOCCOCCOCCOCCN)cc2)c(F)c1)C(=O)N=C(N)N | in the range around 316 nM | 
CN1Cc2c(Cl)cc(Cl)cc2C(c2ccc(S(=O)(=O)NCCOCCOCCOCCNC(=O)NCCOCCOCCOCCNS(=O)(=O)c3ccc(C4CN(C)Cc5c(Cl)cc(Cl)cc54)cc3)cc2)C1 (stereo not given) |  | > 7.00
CN1Cc2c(Cl)cc(Cl)cc2C(c2ccc(NS(=O)(=O)NCCP(=O)(O)O)cc2)C1 (stereo not given) | in the range around 3160 nM | 
NCCCN1CCN(c2cccc(-c3nc(N=C(N)N)nc4ccc(Cl)cc34)c2)CC1 | in the range around 316 nM | 
CN1Cc2c(Cl)cc(Cl)cc2C(c2cccc(S(=O)(=O)NCCOCCOCCNC(=O)[C@H](O)[C@@H](O)C(=O)NCCOCCOCCNS(=O)(=O)c3cccc(C4CN(C)Cc5c(Cl)cc(Cl)cc54)c3)c2)C1 (stereo not given in full) | in the range around 316 nM | 
CN1Cc2c(Cl)cc(Cl)cc2C(c2cccc(S(=O)(=O)NCCOCCOCCOCCNC(=O)CN(CC(=O)NCCOCCOCCOCCNS(=O)(=O)c3cccc(C4CN(C)Cc5c(Cl)cc(Cl)cc54)c3)CC(=O)NCCOCCOCCOCCNS(=O)(=O)c3cccc(C4CN(C)Cc5c(Cl)cc(Cl)cc54)c3)c2)C1 (stereo not given) | in the range around 316 nM | 
CN1Cc2c(Cl)cc(Cl)cc2C(c2cccc(S(=O)(=O)NCCOCCOCCOCCNC(=O)C(O)C(O)C(=O)NCCOCCOCCOCCNS(=O)(=O)c3cccc(C4CN(C)Cc5c(Cl)cc(Cl)cc54)c3)c2)C1 (stereo not given) |  | > 7.00
CN1Cc2c(Cl)cc(Cl)cc2C(c2cccc(S(=O)(=O)NCCOCCOCCOCCNC(=O)NCCCCNC(=O)NCCOCCOCCOCCNS(=O)(=O)c3cccc(C4CN(C)Cc5c(Cl)cc(Cl)cc54)c3)c2)C1 (stereo not given) |  | > 7.00
CN1Cc2c(Cl)cc(Cl)cc2C(c2cccc(S(=O)(=O)NCCOCCOCCOCCNC(=O)c3ccc(C(=O)NCCOCCOCCOCCNS(=O)(=O)c4cccc(C5CN(C)Cc6c(Cl)cc(Cl)cc65)c4)cc3)c2)C1 (stereo not given) |  | > 7.00
CN1Cc2c(Cl)cc(Cl)cc2C(c2cccc(S(=O)(=O)NCCOCCOCCOCCNC(=O)Nc3ccc(NC(=O)NCCOCCOCCOCCNS(=O)(=O)c4cccc(C5CN(C)Cc6c(Cl)cc(Cl)cc65)c4)cc3)c2)C1 (stereo not given) | in the range around 3160 nM | 
CN1Cc2c(Cl)cc(Cl)cc2C(c2cccc(S(=O)(=O)NCCOCCOCCOCCNC(=O)[C@@H](O)[C@H](O)C(=O)NCCOCCOCCOCCNS(=O)(=O)c3cccc(C4CN(C)Cc5c(Cl)cc(Cl)cc54)c3)c2)C1 (stereo not given in full) |  | > 7.00
O=C(CNCc1ccc(Cl)cc1Cl)c1cccc([N+](=O)[O-])c1 |  | > 5.00
CN1Cc2c(Cl)cc(Cl)cc2C(c2cccc(S(=O)(=O)NCCOCCOCCOCCn3cc(COCc4cn(CCOCCOCCOCCNS(=O)(=O)c5cccc(C6CN(C)Cc7c(Cl)cc(Cl)cc76)c5)nn4)nn3)c2)C1 (stereo not given) |  | > 7.00
CN1Cc2c(Cl)cc(Cl)cc2C(c2cccc(S(=O)(=O)NCCOCCOCCOCCNS(=O)(=O)c3cccc(S(=O)(=O)NCCOCCOCCOCCNS(=O)(=O)c4cccc(C5CN(C)Cc6c(Cl)cc(Cl)cc65)c4)c3)c2)C1 (stereo not given) | in the range around 3160 nM | 
CN1Cc2c(Cl)cc(Cl)cc2[C@H](c2ccc(S(=O)(=O)NCCOCCOCCOCCNC(=O)NCCCCNC(=O)NCCOCCOCCOCCNS(=O)(=O)c3ccc([C@@H]4CN(C)Cc5c(Cl)cc(Cl)cc54)cc3)cc2)C1 (single isomer, unassigned) |  | > 7.00
CN1Cc2c(Cl)cc(Cl)cc2[C@H](c2ccc(S(=O)(=O)NCCOCCOCCOCCNC(=O)NCCOCCOCCOCCNS(=O)(=O)c3ccc([C@@H]4CN(C)Cc5c(Cl)cc(Cl)cc54)cc3)cc2)C1 (single isomer, unassigned) |  | > 7.00
CN1Cc2c(Cl)cc(Cl)cc2[C@H](c2cccc(S(=O)(=O)NCCOCCOCCNC(=O)Nc3ccc(NC(=O)NCCOCCOCCNS(=O)(=O)c4cccc([C@@H]5CN(C)Cc6c(Cl)cc(Cl)cc65)c4)cc3)c2)C1 (single isomer, unassigned) |  | > 7.00
CN1Cc2c(Cl)cc(Cl)cc2[C@H](c2ccc(S(=O)(=O)NCCOCCOCCNC(=O)COCC(=O)NCCOCCOCCNS(=O)(=O)c3ccc([C@@H]4CN(C)Cc5c(Cl)cc(Cl)cc54)cc3)cc2)C1 (single isomer, unassigned) |  | > 7.00

From ChEMBL document CHEMBL5727484, “Compounds and methods for inhibiting NHE-mediated antiport in the treatment of disorders associated with fluid retention or salt overload and gastrointestinal tract disorders” (2020)
